Among the data in patent US20250057866A1, “A SYNERGISTIC PHARMACEUTICAL COMPOSITION AND ITS ANTIVIRAL USE” (priority 2022, published 2025) are EC50 values, retold here.

Read-outs that look alike come from different tables or passages of the source.

For the experiment, the system named is virus (0.01 MOI) in Vero-E6 cells. The experiment can be described thus: In vitro antiviral activity EC50 assay (CCK8, 48 h, 0.01 MOI virus in Vero-E6 cells). It counts as cell-based. The settings on record: combination mol./mol.=1/1, combined total concentration. On the procedure:
• 1) Vero-E6 cells were digested and passaged. The cells were adjusted to a density of 1×10^5 cells/mL with DMEM containing 10% FBS, then seeded in a 96-well plate (100 μl/well), and incubated in a 35° C., 6% CO2 incubator for 20 h; • 2) Compound 1 and Compound 2 (mol./mol.=1/1) were diluted with DMEM containing 1% FBS to provide compositions with combined total concentrations (Compound 1+Compound 2) of 200 μM, 60 μM, 20 μM, 6 μM, 2 μM, 0.6 μM, 0.2 μM, 0.06 μM, and 0.02 μM; • 3) The culture medium in each well was removed, and the 96-well plate was marked on its lid, washed three times with 1×PBS, and 100 μL of dilutions of the compositions prepared above was added to each well, followed by 100 μL of a 0.01 multiplicity of infection (MOI) virus solution, so as to obtain final combined total concentrations of the compounds (Compound 1+Compound 2) at 100 μM, 30 μM, 10 μM, 3 μM, 1 μM, 0.3 μM, 0.1 μM, 0.03 μM, 0.01 μM. The 96-well plate, including a cell control group and a virus control group, was then incubated in a 35° C., 6% CO2 incubator; • 4) After 48 h, the cell viability was tested with a CCK8 kit.

A word on the EC50: it is the concentration at which the effect is half-maximal. Turning to `[2H]C1([2H])C[C@@H](C[C@@H](C#N)NC(=O)[C@@H]2[C@@H]3[C@H](CN2C(=O)[C@@H](NC(=O)C(F)(F)F)C(C)(C)C)C3(C)C)C(=O)N1` [Compound 1], the 50% effective concentration (EC50) came to 1720 nM (Vero C1008, 48 h) and 1560 ± 576 nM (read-out: EC50).

As to `[2H]C(OC(=O)C(C)C)[C@H]1O[C@@H](n2ccc(NO)nc2=O)[C@H](O)[C@@H]1O` (stereo partly drawn) [Compound 2, ((2R, 3S, 4R, 5R)-3,4-dihydroxy-5-(4-(hydroxylamino)-2-oxopyrimidin-1 (2H)-yl)tetrahydrofuran-2-yl) deuterated methyl isobutyl ester], the EC50 was determined as 1560 nM (Vero C1008, 48 h) and 1720 ± 585 nM (read-out: EC50).
